According to patent US8148391B2 (Cephalon, Inc., priority 2006, dated 2012):
Read-outs that look alike come from different tables or passages of the source.

Legend:
[1] = molecular target: T1, baculovirus-expressed ALK (Homo sapiens, UniProt Q9UM73); assay: ALK Kinase Assay (ELISA-type, time-resolved fluorescence); format: biochemical
T1 construct: host or cells: baculovirus expression system
In short: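 Plates coated with phospholipase C-γ substrate (10 μg/mL in TBS); reaction started with 30 ng/ml ALK and run 15 min at 37° C. Phosphorylated substrate detected with Eu-N1-labeled PT66 antibody. IC50 from sigmoidal variable-slope fit of percent inhibition vs log concentration.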

[2] = molecular target: T2, c-Met (cytoplasmic domain) (Homo sapiens, UniProt P08581); assay: c-Met Kinase Assay (same methods as for ALK, with modifications); format: biochemical
T2 construct: 10 ng/mL c-Met (cytoplasmic domain, Invitrogen Corporation #PV3143); purchased Invitrogen Corporation PV3143
T2 sequence (P08581 956-1390 limits assumed): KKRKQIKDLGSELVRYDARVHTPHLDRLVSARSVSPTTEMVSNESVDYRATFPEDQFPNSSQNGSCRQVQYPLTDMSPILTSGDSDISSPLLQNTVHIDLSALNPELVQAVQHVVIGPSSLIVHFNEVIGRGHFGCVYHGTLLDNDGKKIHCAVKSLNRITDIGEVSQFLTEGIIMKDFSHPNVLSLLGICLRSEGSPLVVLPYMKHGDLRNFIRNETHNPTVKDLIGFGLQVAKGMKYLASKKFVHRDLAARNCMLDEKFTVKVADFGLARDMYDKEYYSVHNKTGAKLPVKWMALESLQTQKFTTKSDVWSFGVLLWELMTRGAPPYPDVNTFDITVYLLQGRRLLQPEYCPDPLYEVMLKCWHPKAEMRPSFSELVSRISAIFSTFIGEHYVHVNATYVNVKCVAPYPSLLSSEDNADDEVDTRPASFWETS
In short: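 Europium-labeled PT66 antibody (Eu-N1) detects substrate phosphorylation on wells coated with phospholipase C-γ at 10 μg/mL. The kinase, the cytoplasmic domain of c-Met at 10 ng/mL, starts the reaction, which proceeds 15 minutes at 37° C.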

[3] = 1 μM ATP (Km level), read-out: ALK Activity (ALK Kinase Inhibition, IC50)
[4] = 1 μM ATP (Km level), read-out: cMet Activity (c-Met Kinase Inhibition, IC50)
[5] = ALK kinase inhibition, 1 μM ATP, read-out: ALK Activity
[6] = c-Met kinase inhibition, 1 μM ATP, read-out: cMet Activity
[7] = 1 μM ATP (Km level), 30 ng/ml ALK, 37° C., 15 minutes, read-out: ALK Activity (ALK kinase inhibition, IC50 class)
[8] = 1 μM ATP (Km level), 10 ng/mL c-Met, read-out: cMet Activity (c-Met kinase inhibition, IC50 class)
[9] = ALK kinase inhibition, 1 μM ATP (Km level), read-out: ALK Activity
[10] = c-Met kinase inhibition, 1 μM ATP (Km level), read-out: cMet Activity

T1 sequence (Q9UM73 19-1620): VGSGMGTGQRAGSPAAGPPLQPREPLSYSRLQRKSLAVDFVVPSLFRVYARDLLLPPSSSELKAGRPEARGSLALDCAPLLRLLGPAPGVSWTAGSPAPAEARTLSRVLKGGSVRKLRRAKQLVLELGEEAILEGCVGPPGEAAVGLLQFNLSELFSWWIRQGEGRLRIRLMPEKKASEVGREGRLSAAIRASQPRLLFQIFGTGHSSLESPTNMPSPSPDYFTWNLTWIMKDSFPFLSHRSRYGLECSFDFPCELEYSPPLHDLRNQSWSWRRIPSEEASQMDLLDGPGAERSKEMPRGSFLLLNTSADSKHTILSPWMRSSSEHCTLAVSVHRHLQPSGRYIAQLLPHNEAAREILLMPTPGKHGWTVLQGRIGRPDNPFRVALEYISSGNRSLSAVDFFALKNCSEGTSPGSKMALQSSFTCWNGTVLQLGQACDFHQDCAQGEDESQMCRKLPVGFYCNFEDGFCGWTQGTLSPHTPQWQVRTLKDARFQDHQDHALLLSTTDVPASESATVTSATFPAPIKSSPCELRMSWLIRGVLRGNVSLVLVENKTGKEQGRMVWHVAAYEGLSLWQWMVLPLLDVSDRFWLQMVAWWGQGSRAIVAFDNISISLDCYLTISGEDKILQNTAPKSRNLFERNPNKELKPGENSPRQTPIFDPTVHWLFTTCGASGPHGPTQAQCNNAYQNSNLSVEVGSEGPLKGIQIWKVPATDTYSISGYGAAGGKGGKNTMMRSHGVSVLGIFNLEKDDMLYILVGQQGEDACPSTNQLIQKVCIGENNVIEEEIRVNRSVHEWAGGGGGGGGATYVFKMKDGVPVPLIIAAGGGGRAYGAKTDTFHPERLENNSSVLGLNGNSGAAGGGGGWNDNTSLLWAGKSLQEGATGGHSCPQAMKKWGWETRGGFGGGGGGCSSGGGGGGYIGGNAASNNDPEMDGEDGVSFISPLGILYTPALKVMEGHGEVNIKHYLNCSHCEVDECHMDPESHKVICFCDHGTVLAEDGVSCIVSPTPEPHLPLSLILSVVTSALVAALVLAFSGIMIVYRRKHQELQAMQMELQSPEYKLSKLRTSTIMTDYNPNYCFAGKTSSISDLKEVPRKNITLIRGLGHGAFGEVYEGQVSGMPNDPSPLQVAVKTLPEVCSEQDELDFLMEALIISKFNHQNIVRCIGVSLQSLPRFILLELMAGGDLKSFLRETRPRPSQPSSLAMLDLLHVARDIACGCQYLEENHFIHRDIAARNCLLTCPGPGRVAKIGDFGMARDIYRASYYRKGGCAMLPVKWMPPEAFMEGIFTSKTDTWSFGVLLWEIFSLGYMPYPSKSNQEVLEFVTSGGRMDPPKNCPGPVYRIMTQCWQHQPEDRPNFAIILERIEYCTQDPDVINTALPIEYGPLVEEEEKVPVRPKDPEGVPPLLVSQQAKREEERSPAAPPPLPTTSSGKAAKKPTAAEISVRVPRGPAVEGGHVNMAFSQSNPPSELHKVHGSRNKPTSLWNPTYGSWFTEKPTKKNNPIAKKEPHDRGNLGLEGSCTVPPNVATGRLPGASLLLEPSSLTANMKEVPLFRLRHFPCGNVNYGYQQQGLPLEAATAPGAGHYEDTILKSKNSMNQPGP

Compound: COc1c(Nc2ncc(Cl)c(N[C@H]3[C@@H](C(N)=O)[C@@H]4C=C[C@H]3C4)n2)ccc2c1CC[C@H](N1CCOCC1)CC2 [Example 881, (1S,2S,3R,4R)-3-[5-Chloro-2-((R)-1-methoxy-7-morpholin-4-yl-6,7,8,9-tetrahydro-5H-benzocyclohepten-2-ylamino)-pyrimidin-4-ylamino]-bicyclo[2.2.1]hept-5-ene-2-carboxylic acid amide]
- IC50 [1, 3]: < 100 nM
- IC50 ([2]; cMet Activity (c-Met Kinase Inhibition, IC50), 1 μM ATP (Km level)): > 10000 nM

Compound: CC(C)N1C(=O)CCCc2cc(Nc3ncc(Cl)c(NC4C5C=CC(C5)C4C(N)=O)n3)ccc21 (stereo not shown) [Example 669, 3-[5-Chloro-2-(1-isopropyl-2-oxo-2,3,4,5-tetrahydro-1H-benzo[b]azepin-7-ylamino)-pyrimidin-4-ylamino]-bicyclo[2.2.1]hept-5-ene-2-carboxylic acid amide]
- IC50 [1, 3]: < 100 nM
- IC50 [2, 4]: < 100 nM

Compound: COc1cc2c(cc1Nc1ncc(Cl)c(N[C@H]3[C@@H](C(N)=O)[C@@H]4C=C[C@H]3C4)n1)N(C)C(=O)CNC2 [Example 743, (1S,2S3,R,4R)-3-[5-Chloro-2-(7-methoxy-1-methyl-2-oxo-2,3,4,5-tetrahydro-1H-benzo[e][1,4]diazepin-8-ylamino)-pyrimidin-4-ylamino]-bicyclo[2.2.1]hept-5-ene-2-carboxylic acid amide]
- IC50 [1, 3]: < 100 nM
- IC50 [2, 4]: > 10000 nM

Compound: Cc1cnc(-c2sccc2Nc2nc(Nc3ccc4c(c3)CCOC(=O)N4C)ncc2Cl)o1 [Example 1790, 2-{5-Chloro-4-[2-(5-methyl-oxazol-2-yl)-thiophen-3-ylamino]-pyrimidin-2-ylamino}-5-methyl-8,9-dihydro-5H-7-oxa-5-aza-benzocyclohepten-6-one]
- IC50 [1, 5]: 100 to 1000 nM
- IC50 [2, 6]: 100 to 1000 nM

Compound: CCN1CC(=O)Nc2cc(Nc3ncc(Cl)c(Nc4ccccc4S(=O)(=O)C(C)C)n3)c(OC)cc2C1 [Example 1660, 8-{5-Chloro-4-[2-(propane-2-sulfonyl)-phenylamino]-pyrimidin-2-ylamino}-4-ethyl-7-methoxy-1,3,4,5-tetrahydro-benzo[e][1,4]diazepin-2-one]
- IC50 [1, 5]: < 100 nM
- IC50 [2, 6]: > 10000 nM

Compound: COc1c(Nc2ncc(Cl)c(Nc3ccccc3S(=O)(=O)N(C)C)n2)ccc2c1CCCC(N1CCOCC1)C2 (stereo not shown) [Example 944, 2-[5-Chloro-2-(1-methoxy-6-morpholin-4-yl-6,7,8,9-tetrahydro-5H-benzocyclohepten-2-ylamino)-pyrimidin-4-ylamino]-N,N-dimethyl-benzenesulfonamide]
- IC50 [1, 3]: < 100 nM
- IC50 [2, 4]: > 10000 nM

Compound: CNC(=O)c1cc(F)cc(F)c1Nc1nc(Nc2ccc3c(c2)NC(=O)CCC3)ncc1Cl [Example 1278, 2-[5-Chloro-2-(2-oxo-2,3,4,5-tetrahydro-1H-1-benzazepin-8-ylamino)-pyrimidin-4-ylamino]-3,5-difluoro-N-methyl-benzamide]
- IC50 [1, 7]: < 100 nM
- IC50 [2, 8]: < 100 nM

Compound: COc1cc2c(cc1Nc1ncc(Cl)c(Nc3ccccc3S(=O)(=O)N3CCCC3)n1)CCC(NCCO)CC2 (stereo not shown) [Example 1087, 2-(2-{5-Chloro-4-[2-(pyrrolidine-1-sulfonyl)-phenylamino]-pyrimidin-2-ylamino}-3-methoxy-6,7,8,9-tetrahydro-5H-benzocyclohepten-7-ylamino)-ethanol]
- IC50 [1, 7]: < 100 nM
- IC50 [2, 8]: 1000 to 10000 nM

Compound: COc1cc2c(cc1Nc1ncc(Cl)c(Nc3ccc(N4CCOCC4)cc3-n3cccn3)n1)CCN(CC(=O)N(C)C)CC2 [Example 626, 2-{7-[5-Chloro-4-(4-morpholin-4-yl-2-pyrazol-1-yl-phenylamino)-pyrimidin-2-ylamino]-8-methoxy-1,2,4,5-tetrahydro-benzo[d]azepin-3-yl}-N,N-dimethyl-acetamide]
- IC50 [1, 3]: < 100 nM
- IC50 [2, 4]: > 10000 nM

Compound: CCN1C(=O)CCCc2c1ccc(Nc1ncc(Cl)c(Nc3ccccc3-c3nccn3C)n1)c2OC [Example 983, 7-{5-Chloro-4-[2-(1-methyl-1H-imidazol-2-yl)-phenylamino]-pyrimidin-2-ylamino}-1-ethyl-6-methoxy-1,3,4,5-tetrahydro-benzo[b]azepin-2-one]
- IC50 [1, 3]: < 100 nM
- IC50 [2, 4]: > 10000 nM

Compound: CCOC(=O)N1C2CCC1c1cc(Nc3ncc(Cl)c(Nc4ccccc4C(=O)NC)n3)c(Cl)cc1C2 (stereo not shown) [Example 74, 5-Chloro-4-[5-chloro-4-(2-methylcarbamoyl-phenylamino)-pyrimidin-2-ylamino]-12-aza-tricyclo[7.2.1.0*2,7*]dodeca-2(7),3,5-triene-12-carboxylic acid ethyl ester]
- IC50 [1, 9]: 100 to 1000 nM
- IC50 [2, 10]: > 10000 nM

Compound: COCCN1CCc2ccc(Nc3ncc(Cl)c(N[C@@H]4CCCC[C@H]4N(CC#N)S(C)(=O)=O)n3)cc2CC1 [Example 1383, N-((1R,2R)-2-{5-Chloro-2-[3-(2-methoxy-ethyl)-2,3,4,5-tetrahydro-1H-benzo[d]azepin-7-ylamino]-pyrimidin-4-ylamino}-cyclohexyl)-N-cyanomethyl-methanesulfonamide]
- IC50 [1, 7]: 100 to 1000 nM
- IC50 [2, 8]: 1000 to 10000 nM

Compound: COc1cc2c(cc1Nc1ncc(Cl)c(Nc3ccccc3S(=O)(=O)N(C)C)n1)CCN(CCOP(=O)(O)O)CC2 [Example 1545, Phosphoric acid mono-(2-{7-[5-chloro-4-(2-dimethylsulfamoyl-phenylamino)-pyrimidin-2-ylamino]-8-methoxy-1,2,4,5-tetrahydro-3-benzazepin-3-yl}-ethyl)ester]
- IC50 [1, 5]: < 100 nM
- IC50 [2, 6]: 1000 to 10000 nM

Compound: CCN1CCc2cc(Nc3ncc(Cl)c(Nc4ccc(N5CCOCC5)cc4OC)n3)c(OC)cc2CC1 [Example 1129, 5-Chloro-N*2*-(3-ethyl-8-methoxy-2,3,4,5-tetrahydro-1H-benzo[d]azepin-7-yl)-N*4*-(2-methoxy-4-morpholin-4-yl-phenyl)-pyrimidine-2,4-diamine]
- IC50 [1, 7]: < 100 nM
- IC50 [2, 8]: > 10000 nM

Compound: CCN1CCN(CC)c2cc(Nc3ncc(Cl)c(Nc4ccccc4S(=O)(=O)C(C)C)n3)ccc2C1 [Example 728, 5-Chloro-N(2)-(1,4-diethyl-2,3,4,5-tetrahydro-1H-benzo[e][1,4]diazepin-8-yl)-N(4)-[2-(propane-2-sulfonyl)-phenyl]-pyrimidine-2,4-diamine]
- IC50 [1, 3]: < 100 nM
- IC50 [2, 4]: 100 to 1000 nM

Compound: CCN1C(=O)CCCc2cc(Nc3ncc(Cl)c(Nc4ccccc4-c4nccn4C)n3)c(OC)cc21 [Example 996, 7-{5-Chloro-4-[2-(1-methyl-1H-imidazol-2-yl)-phenylamino]-pyrimidin-2-ylamino}-1-ethyl-8-methoxy-1,3,4,5-tetrahydro-benzo[b]azepin-2-one]
- IC50 [1, 3]: < 100 nM
- IC50 [2, 4]: > 10000 nM

Compound: CNC(=O)c1ccccc1Nc1nc(Nc2ccc3c(c2)C2CCC3CN(C(C)C)C2)ncc1Cl (stereo not shown) [Example 273, 2-[5-Chloro-2-(10-isopropyl-10-aza-tricyclo[6.3.2.0*2,7*]trideca-2,4,6-trien-4-ylamino)-pyrimidin-4-ylamino]-N-methyl-benzamide]
- IC50 [1, 9]: < 100 nM
- IC50 [2, 10]: < 100 nM

Compound: CS(=O)(=O)N1CCc2ccc(Nc3ncc(Cl)c(NC4C5C=CC(C5)C4C(N)=O)n3)cc2CC1 (stereo not drawn) [Example 321, (2-exo, 3-exo)-3-[5-Chloro-2-(3-methanesulfonyl-2,3,4,5-tetrahydro-1H-benzo[d]azepin-7-ylamino)-pyrimidin-4-ylamino]-bicyclo[2.2.1]hept-5-ene-2-carboxylic acid amide]
- IC50 [1, 9]: < 100 nM
- IC50 [2, 10]: 100 to 1000 nM

Compound: NC(=O)[C@@H]1[C@H](Nc2nc(Nc3ccc4c(c3)CCC(O)CC4)ncc2Cl)[C@H]2C=C[C@@H]1C2 (stereo partly drawn) [Example 1017, (1S,2S,3R,4R)-3-[5-Chloro-2-(7-hydroxy-6,7,8,9-tetrahydro-5H-benzocyclohepten-2-ylamino)-pyrimidin-4-ylamino]-bicyclo[2.2.1]hept-5-ene-2-carboxylic acid amide]
- IC50 [1, 7]: < 100 nM
- IC50 [2, 8]: 100 to 1000 nM

Compound: C#CCNC(=O)c1cccc(F)c1Nc1nc(Nc2ccc3c(c2)NC(=O)C(NC(=O)N2CCCC2)CC3(C)C)ncc1Cl (stereo not shown) [Example 1296, Pyrrolidine-1-carboxylic acid {8-[5-chloro-4-(2-fluoro-6-prop-2-ynylcarbamoyl-phenylamino)-pyrimidin-2-ylamino]-5,5-dimethyl-2-oxo-2,3,4,5-tetrahydro-1H-1-benzazepin-3-yl}-amide]
- IC50 [1, 7]: 100 to 1000 nM
- IC50 [2, 8]: < 100 nM

Compound: CCN1CCc2ccc(Nc3ncc(Cl)c(N[C@@H]4CCCC[C@H]4NS(C)(=O)=O)n3)c(OC)c2CC1 [Example 232, N-{(1R,2R)-2-[5-Chloro-2-(3-ethyl-6-methoxy-2,3,4,5-tetrahydro-1H-benzo[d]azepin-7-ylamino)-pyrimidin-4-ylamino]-cyclohexyl}-methanesulfonamide]
- IC50 [1, 9]: < 100 nM
- IC50 [2, 10]: > 10000 nM

Compound: 2-[5-Chloro-2-(6-methoxy-2-oxo-2,3,4,5-tetrahydro-1H-benzo[b]azepin-7-ylamino)-pyrimidin-4-ylamino]-N-methyl-benzamide [Example 3]
- IC50 [1, 9]: < 100 nM
- IC50 [2, 10]: 1000 to 10000 nM

Compound: CNC(=O)c1ccccc1Nc1nc(Nc2ccc3c(c2)N(C)CCN(C(=O)N(C)C)C3)ncc1Cl [Example 489, 8-[5-Chloro-4-(2-methylcarbamoyl-phenylamino)-pyrimidin-2-ylamino]-1-methyl-1,2,3,5-tetrahydro-benzo[e][1,4]diazepine-4-carboxylic acid dimethylamide]
- IC50 [1, 9]: < 100 nM
- IC50 [2, 10]: < 100 nM
